Entries after “also recorded” stand apart in the source; their conditions may differ.
What was measured:
aged Wistar rats = assay: Novel object recognition study (reversal of age-related behavioral deficits); type: in vivo; conditions: aged (20 months) Wistar rats, 14 day treatment, 3, 10, 30 mg/kg; compared to galantamine; FIG. 1; listed as AMG221
Procedure: Thus, over a 14 day treatment period, young and aged (20 months) Wistar rats were administered formulations as follows: […]
1. Young: pharmaceutical vehicle (no active agent);
2. Young: galantamine, an acetylcholinesterase inhibitor as a positive control;

[1] = Concentration vs. time profiles in plasma, CSF, brain regions and fat after intravenous infusion; type: in vivo, cynomolgus monkeys; conditions: cynomolgus monkey, intravenous infusion for 1 hour
Procedure: The concentration of AMG221 in the biological samples described above was measured as a function of time.
The concentration of (B) in the biological samples described above was measured as a function of time.

Compound | improvement in novel object recognition (aged Wistar rats) | distribution within central nervous system versus fat [1] | time concentrations exceeded the cynomolgus Ki for 11β-HSD1 in unbound plasma [1] | time concentrations exceeded the cynomolgus Ki for 11β-HSD1 in CSF ([1]; CSF) | distribution into fat ([1]; relative to AMG221)
CC(C)[C@]1(C)SC(N[C@H]2C[C@@H]3CC[C@H]2C3)=NC1=O [Compound (A)] | reverses age-related behavioral deficits; also recorded: superior improvement in novel object recognition | distributed uniformly and more rapidly within the central nervous system than in fat | three | – | –
CC(C)[C@]1(C)SC(N[C@H]2C[C@H]3C[C@@H]2C[C@@H]3O)=NC1=O [Compound (B)] | – | distributed uniformly and more rapidly within the central nervous system than in fat | eight | five | distributed poorly into fat
